Test results reported in patent publication US20250134889A1, “TARGETING IRE1 KINASE AND FMRP FOR PROPHYLAXIS, MANAGEMENT AND TREATMENT OF ATHEROSCLEROSIS” (CEDARS-SINAI MEDICAL CENTER, priority 2022, published 2025).

Key:
IRE1 kinase activity = target: T1, IRE1 kinase activity (Mus musculus, UniProt Q9EQY0); assay: IRE1 and FMRP phosphorylation in peritoneal macrophages of TM-injected mice (western blot); assay type: in vivo; conditions: C57BL/6, AMG-18 30 mg/kg 8 hours, TM 1 mg/kg
T1 construct: from tissue; host or cells: thioglycolate-elicited peritoneal macrophages of C57BL/6 mice
T1 sequence (Q9EQY0 21-977): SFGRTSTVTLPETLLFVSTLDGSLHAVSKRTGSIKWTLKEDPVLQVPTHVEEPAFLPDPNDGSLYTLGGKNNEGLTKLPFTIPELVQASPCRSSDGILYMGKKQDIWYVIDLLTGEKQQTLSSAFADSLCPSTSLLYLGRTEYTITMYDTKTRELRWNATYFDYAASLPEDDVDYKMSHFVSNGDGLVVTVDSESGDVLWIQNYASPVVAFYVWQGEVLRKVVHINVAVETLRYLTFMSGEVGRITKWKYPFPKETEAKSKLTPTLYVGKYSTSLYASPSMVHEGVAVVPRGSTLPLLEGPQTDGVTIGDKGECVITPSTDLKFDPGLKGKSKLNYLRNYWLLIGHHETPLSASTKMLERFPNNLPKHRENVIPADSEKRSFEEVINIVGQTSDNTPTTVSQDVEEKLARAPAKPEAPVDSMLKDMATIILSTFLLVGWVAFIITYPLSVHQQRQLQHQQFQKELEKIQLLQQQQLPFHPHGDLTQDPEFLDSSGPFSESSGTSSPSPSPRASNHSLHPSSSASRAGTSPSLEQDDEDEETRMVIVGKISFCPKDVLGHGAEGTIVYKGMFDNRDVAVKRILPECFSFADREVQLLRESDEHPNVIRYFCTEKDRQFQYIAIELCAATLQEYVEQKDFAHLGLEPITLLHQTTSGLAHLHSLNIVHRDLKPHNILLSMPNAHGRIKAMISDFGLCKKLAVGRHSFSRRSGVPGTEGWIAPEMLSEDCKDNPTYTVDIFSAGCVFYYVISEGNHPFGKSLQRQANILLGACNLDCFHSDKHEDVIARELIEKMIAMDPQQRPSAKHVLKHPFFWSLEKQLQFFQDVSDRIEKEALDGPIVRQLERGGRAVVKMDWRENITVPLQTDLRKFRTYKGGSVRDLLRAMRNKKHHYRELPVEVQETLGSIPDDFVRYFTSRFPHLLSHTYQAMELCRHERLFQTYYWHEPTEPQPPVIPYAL
Description: FIGS. 1A-1K depict FMRP is a new inositol-requiring enzyme-1 (IRE1) kinase substrate. A representative blot is shown from at least n=3 independent experiments. Data are mean±SEM. Unpaired 1-test with Welch's correction or paired 1-test. * P≤0.05, ** P≤0.01, *** P≤0.001. • 1A. STING analysis of published IRE1 interactome proteins in relation to FMRP (Acosta-Alvear et al., 2018). • 1B. HEK293T cells were co-transfected with IRE1 and FMRP plasmids and stimulated with TG (600 nM) or TM (1 mg/ml) for 2 hours. Protein lysates were immunoprecipitated (IP) with anti-IRE1 or IgG (control) antibodies and analyzed by Western blotting using specific antibodies for FMRP and IRE1 (n=3). • 1C. RAW 264.7 mouse macrophages were treated with either oxLDL (50 μg/ml) or TG (300 nM) for 6 hours. Protein lysates were treated with λ Phosphatase (PPase) for 30 minutes and analyzed by western blotting using specific antibodies for pFMRP, FMRP, pIRE1, IRE1 and β-Actin. pFMRP/FMRP fold induction is depicted above the blots (n=6). • 1D. […] Protein lysates were analyzed by western blotting using specific antibodies for pFMRP, FMRP, pIRE1, IRE1 and β-Actin. pFMRP/FMRP-fold induction is depicted above the blots (n=5). • 1E. […] Protein lysates were analyzed by western blotting using specific antibodies for pFMRP, FMRP, pIRE1, IRE1 and β-Actin. pFMRP/FMRP fold induction is depicted above the blots (n=4). • 1F. […]

BMDMs = assay: Apoptosis detection by flow cytometry (PI); assay type: cell-based, mouse; conditions: AMG-18 10 μM 1 hour pre-treatment, PA 12 hours
Excerpt: FIGS. 5K-5T depict: (Data are mean #SEM; Mann Whitney U test. * P≤0.05, ** P≤0.01, *** P≤0.001) • 5K. The ratio of mouse weight at the beginning of the experiment over the weight at the end of the experiment in FIG. 5A (n=12-13); and plasma measurements for glucose (n=12-13), cholesterol (n=12-13) and lipoproteins (n=4), respectively, from mice in FIG. 5A. • 5L. Abundance of B cells, T cells and monocytes in the peripheral blood as % of total CD45+ cells from the Fmr1^+/+ and Fmr1^−/− mice in FIG. 5A (n=12-13) . • 5M. Macrophage area was calculated from MOMA-2 (red)-stained aortic root sections as % of MOMA2^+ stained area to total plaque area (n=8; Scale bar=100 μm). • 5N. Apoptosis was calculated from the number of TUNEL^+ cells (green) in the MOMA-2-stained (red) plaque area (n=8; Scale bar=100 μm). • 5O. Fmr1^+/+ and Fmr1^−/− BMDMs or AMG-18 pre-treated cells (10 μM, 1 hour) were treated with PA ([…]) treatment for 12 hours and then stained with Propidium iodide (PI) (n=5). • 5P. % Smooth muscle actin (α-SMA) was calculated from aortic root sections stained with a-SMA (green) as % α-SMA^+ area to the total plaque area (n=8, Scale bar 100 μm). • 5Q. % collagen area was calculated from Masson's Trichrome staining as the percentage of collagen (blue) area in total plaque area (n=8; Scale bar=100 μm). • 5R. […]

FMRP phosphorylation in PM (IRE1 kinase activity): reduced | IRE1 kinase activity (pIRE1) in PM (IRE1 kinase activity): inhibited
SMILES: Cc1ccc2c(NS(=O)(=O)c3ccccc3Cl)cccc2c1Oc1ncccc1-c1ccnc(N[C@H]2CCCNC2)n1 [AMG-18]
apoptosis (PI staining) (BMDMs): no significant change
